The structures appear in SMILES notation.

Broadly, the IC50 is the concentration at which inhibition is half-maximal.

Sequence of Apoptotic protease-activating factor 1 (Homo sapiens) (O14727 whole entry, looked up): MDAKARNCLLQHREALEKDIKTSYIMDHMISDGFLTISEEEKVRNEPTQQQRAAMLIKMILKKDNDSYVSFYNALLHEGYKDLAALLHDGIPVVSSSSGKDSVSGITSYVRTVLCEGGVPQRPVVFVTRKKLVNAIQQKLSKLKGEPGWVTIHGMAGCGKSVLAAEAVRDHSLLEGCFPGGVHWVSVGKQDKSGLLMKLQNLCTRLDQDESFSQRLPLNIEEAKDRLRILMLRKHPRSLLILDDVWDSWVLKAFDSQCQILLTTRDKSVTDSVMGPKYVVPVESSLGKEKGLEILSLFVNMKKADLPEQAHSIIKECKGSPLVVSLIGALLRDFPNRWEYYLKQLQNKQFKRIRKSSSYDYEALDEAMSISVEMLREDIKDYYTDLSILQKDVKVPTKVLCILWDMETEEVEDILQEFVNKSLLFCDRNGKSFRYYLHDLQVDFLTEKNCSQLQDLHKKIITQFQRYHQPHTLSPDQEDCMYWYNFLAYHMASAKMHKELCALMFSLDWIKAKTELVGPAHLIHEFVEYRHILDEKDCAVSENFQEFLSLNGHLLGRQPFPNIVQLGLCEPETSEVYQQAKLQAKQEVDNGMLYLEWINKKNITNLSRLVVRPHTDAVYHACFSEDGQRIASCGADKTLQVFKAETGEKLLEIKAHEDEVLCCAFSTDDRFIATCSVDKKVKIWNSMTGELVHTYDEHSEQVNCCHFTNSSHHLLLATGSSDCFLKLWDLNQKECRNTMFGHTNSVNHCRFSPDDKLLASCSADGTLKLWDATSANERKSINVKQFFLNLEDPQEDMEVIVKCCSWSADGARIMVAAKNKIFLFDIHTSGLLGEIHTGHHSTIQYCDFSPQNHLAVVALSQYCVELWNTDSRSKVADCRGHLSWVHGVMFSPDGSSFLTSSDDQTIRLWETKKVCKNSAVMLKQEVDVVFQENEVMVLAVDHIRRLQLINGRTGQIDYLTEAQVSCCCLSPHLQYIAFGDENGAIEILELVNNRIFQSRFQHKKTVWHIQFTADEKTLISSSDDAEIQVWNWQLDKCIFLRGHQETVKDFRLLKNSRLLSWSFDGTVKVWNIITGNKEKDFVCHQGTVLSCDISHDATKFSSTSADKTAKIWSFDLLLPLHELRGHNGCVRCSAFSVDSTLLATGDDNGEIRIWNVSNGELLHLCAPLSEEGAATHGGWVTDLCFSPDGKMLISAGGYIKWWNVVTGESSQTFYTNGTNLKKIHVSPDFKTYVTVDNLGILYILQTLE

This assay concerns the target Apoptotic protease-activating factor 1 (Homo sapiens) (UniProt O14727). Put plainly: Apaf-1 assay inhibition concentration curves – fluorescence, uHTS hits, dose response (AID 588524). The conditions noted are these: Apaf-1 apoptosome assay, fluorescence read-out.
Take `CCCCCCCCCCCCCCCC[n+]1ccc(/C=N/O)cc1`: the IC50 was 29.3 µM.
`CNc1ccc2nc3ccccc3[n+](C)c2c1`: the IC50 was 11.5 µM.
Turning to `C#CCOCCOCCOCCNc1nc(N2CCN(C(=O)CCCCCCCCCCNC(=O)Cn3cc(CCCCCN)nn3)CC2)nc(N2CCN(C(=O)CCCCCCCCCCNC(=O)[C@H]([C@@H](C)CC)n3cc(CCCCCN)nn3)CC2)n1`, the IC50 was 24.3 µM.
Regarding `C#CCOCCOCCOCCNc1nc(N2CCN(C(=O)CCCCCCCCCCNC(=O)[C@@H](CCSC)n3cc(CCO)nn3)CC2)nc(N2CCN(C(=O)CCCCCCCCCCNC(=O)[C@H](CO)n3cc(CCCCCN)nn3)CC2)n1`, the IC50 is 40 µM.
To `C#CCOCCOCCOCCNc1nc(N2CCN(C(=O)CCCCCCCCCCNC(=O)[C@H](CCCCN)n3cc(C)nn3)CC2)nc(N2CCN(C(=O)CCCCCCCCCCNC(=O)[C@H](CCCN=C(N)N)n3cc(C[C@@H](C)CC)nn3)CC2)n1` belongs 15.3 µM.
Consider `C[n+]1c(-c2ccccc2)c2cc(N)ccc2c2ccc(N)cc21`, for which the IC50 is 24.5 µM.
As to `C#CCOCCOCCOCCNc1nc(N2CCN(C(=O)CCCCCCCCCCNC(=O)Cn3cc(CCCCCN)nn3)CC2)nc(N2CCN(C(=O)CCCCCCCCCCNC(=O)Cn3cc(CCCCCN)nn3)CC2)n1`, the IC50 was 34.9 µM.
Take `C#CCOCCOCCOCCNc1nc(N2CCN(C(=O)CCCCCCCCCCNC(=O)Cn3cc(CCCCCN)nn3)CC2)nc(N2CCN(C(=O)CCCCCCCCCCNC(=O)[C@H](CO)n3cc(CCCSC)nn3)CC2)n1`: the IC50 was 24.6 µM.
With `C#CCOCCOCCOCCNc1nc(N2CCN(C(=O)CCCCCCCCCCNC(=O)Cn3cc(CCCCCN)nn3)CC2)nc(N2CCN(C(=O)CCCCCCCCCCNC(=O)[C@H]([C@@H](C)CC)n3cc(CCCCN=C(N)N)nn3)CC2)n1`, the IC50 was 12.9 µM.
Take `C#CCOCCOCCOCCNc1nc(N2CCN(C(=O)CCCCCCCCCCNC(=O)[C@H](CCCCN)n3cc(CCO)nn3)CC2)nc(N2CCN(C(=O)CCCCCCCCCCNC(=O)[C@H](CCCCN)n3cc(CCO)nn3)CC2)n1`: the IC50 was 27.1 µM.
In the case of `C#CCOCCOCCOCCNc1nc(N2CCN(C(=O)CCCCCCCCCCNC(=O)[C@H]([C@@H](C)CC)n3cc(CCCCN=C(N)N)nn3)CC2)nc(N2CCN(C(=O)CCCCCCCCCCNC(=O)[C@H](CCCCN)n3cc(C)nn3)CC2)n1` it was 21.4 µM.
Consider `C#CCOCCOCCOCCNc1nc(N2CCN(C(=O)CCCCCCCCCCNC(=O)[C@H](CO)n3cc(CCCSC)nn3)CC2)nc(N2CCN(C(=O)CCCCCCCCCCNC(=O)[C@H](CCCCN)n3cc(CCO)nn3)CC2)n1`, for which the IC50 is 36.3 µM.

Source of the values: PubChem BioAssay AID588524 (Sanford-Burnham Center for Chemical Genomics, 2011).
